Values quoted from earlier work in patent publication US20180284402A1, “TOPICAL ANALGESIC PAIN RELIEF FORMULATIONS, MANUFACTURE AND METHODS OF USE THEREOF” (priority 2016, published 2018).
Where two headings read alike, the source gives them in different places.

Key:
[1] = target: T1, hTRPA1 (Homo sapiens, UniProt O75762)
[2] = target: T1, hTRPA1; conditions: compound at 1 mM; for inhibition of hTRPA1 activation by allyl isothiocyanate (mustard oil): allyl isothiocyanate at 10 uM; for inhibition of hTRPA1 activation by menthol: menthol at 1 mM
[3] = target: human TRPM8 (hTRPM8) (Homo sapiens, UniProt Q7Z2W7); conditions: Takaishi 2012
[4] = target: hTRPV1 (Homo sapiens, UniProt Q8NER1); conditions: Takaishi 2012
[5] = target: T2, hTRPV2 (Homo sapiens, UniProt Q9Y5S1); conditions: Takaishi 2012
T2 sequence (Q9Y5S1 1-764): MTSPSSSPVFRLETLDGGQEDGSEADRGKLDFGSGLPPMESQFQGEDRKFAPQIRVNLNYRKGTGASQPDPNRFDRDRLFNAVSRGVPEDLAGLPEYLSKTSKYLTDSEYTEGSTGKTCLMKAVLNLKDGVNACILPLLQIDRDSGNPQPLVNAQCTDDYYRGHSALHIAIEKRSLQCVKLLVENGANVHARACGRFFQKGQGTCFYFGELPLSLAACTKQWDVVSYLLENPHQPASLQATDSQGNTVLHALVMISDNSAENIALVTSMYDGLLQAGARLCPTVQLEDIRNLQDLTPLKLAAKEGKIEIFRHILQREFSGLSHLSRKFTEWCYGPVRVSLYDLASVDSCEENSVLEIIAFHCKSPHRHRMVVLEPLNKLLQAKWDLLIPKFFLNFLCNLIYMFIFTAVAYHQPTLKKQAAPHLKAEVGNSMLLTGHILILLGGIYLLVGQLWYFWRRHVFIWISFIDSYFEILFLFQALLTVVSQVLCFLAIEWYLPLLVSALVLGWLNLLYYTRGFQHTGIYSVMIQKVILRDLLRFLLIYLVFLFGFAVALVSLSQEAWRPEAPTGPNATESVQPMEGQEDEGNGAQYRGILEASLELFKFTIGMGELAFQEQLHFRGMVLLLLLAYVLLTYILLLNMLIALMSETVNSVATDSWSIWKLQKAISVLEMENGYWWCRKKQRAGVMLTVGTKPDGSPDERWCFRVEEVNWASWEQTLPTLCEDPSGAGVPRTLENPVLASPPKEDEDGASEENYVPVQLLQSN

[6] = test system: TRPV1; conditions: Morales-Lazaro 2016
[7] = test system: pain and itch responses; conditions: mice

T1 sequence (O75762 whole entry): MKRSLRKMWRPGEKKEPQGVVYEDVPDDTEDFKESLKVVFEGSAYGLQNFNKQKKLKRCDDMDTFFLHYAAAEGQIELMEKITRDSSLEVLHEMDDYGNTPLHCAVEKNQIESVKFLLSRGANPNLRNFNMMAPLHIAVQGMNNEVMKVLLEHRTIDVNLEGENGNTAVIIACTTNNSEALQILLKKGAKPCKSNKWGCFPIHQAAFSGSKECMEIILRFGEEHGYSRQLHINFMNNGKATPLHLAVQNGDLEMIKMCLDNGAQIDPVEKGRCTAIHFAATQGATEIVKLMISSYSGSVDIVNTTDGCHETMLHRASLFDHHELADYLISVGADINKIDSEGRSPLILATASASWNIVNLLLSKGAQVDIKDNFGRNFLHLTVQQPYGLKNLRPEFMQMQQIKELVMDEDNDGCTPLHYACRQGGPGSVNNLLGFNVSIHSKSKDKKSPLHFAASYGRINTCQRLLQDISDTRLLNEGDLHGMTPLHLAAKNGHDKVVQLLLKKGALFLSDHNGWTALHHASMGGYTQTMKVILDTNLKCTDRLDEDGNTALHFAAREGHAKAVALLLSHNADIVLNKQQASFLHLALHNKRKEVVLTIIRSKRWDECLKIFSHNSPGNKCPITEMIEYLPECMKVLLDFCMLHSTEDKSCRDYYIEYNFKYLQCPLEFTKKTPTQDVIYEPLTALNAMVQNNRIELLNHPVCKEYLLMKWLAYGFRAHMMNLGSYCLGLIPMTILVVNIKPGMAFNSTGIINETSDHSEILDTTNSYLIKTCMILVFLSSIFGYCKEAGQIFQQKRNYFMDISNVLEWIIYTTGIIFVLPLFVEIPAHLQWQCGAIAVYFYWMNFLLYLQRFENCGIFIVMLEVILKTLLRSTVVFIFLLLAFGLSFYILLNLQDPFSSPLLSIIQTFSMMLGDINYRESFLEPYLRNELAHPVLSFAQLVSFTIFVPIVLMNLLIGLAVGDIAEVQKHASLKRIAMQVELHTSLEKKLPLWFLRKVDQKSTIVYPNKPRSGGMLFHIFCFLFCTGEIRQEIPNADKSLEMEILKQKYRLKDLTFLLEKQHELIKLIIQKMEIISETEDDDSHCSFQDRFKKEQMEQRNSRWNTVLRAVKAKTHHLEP
Sequence of human TRPM8 (hTRPM8) (Q7Z2W7 whole entry): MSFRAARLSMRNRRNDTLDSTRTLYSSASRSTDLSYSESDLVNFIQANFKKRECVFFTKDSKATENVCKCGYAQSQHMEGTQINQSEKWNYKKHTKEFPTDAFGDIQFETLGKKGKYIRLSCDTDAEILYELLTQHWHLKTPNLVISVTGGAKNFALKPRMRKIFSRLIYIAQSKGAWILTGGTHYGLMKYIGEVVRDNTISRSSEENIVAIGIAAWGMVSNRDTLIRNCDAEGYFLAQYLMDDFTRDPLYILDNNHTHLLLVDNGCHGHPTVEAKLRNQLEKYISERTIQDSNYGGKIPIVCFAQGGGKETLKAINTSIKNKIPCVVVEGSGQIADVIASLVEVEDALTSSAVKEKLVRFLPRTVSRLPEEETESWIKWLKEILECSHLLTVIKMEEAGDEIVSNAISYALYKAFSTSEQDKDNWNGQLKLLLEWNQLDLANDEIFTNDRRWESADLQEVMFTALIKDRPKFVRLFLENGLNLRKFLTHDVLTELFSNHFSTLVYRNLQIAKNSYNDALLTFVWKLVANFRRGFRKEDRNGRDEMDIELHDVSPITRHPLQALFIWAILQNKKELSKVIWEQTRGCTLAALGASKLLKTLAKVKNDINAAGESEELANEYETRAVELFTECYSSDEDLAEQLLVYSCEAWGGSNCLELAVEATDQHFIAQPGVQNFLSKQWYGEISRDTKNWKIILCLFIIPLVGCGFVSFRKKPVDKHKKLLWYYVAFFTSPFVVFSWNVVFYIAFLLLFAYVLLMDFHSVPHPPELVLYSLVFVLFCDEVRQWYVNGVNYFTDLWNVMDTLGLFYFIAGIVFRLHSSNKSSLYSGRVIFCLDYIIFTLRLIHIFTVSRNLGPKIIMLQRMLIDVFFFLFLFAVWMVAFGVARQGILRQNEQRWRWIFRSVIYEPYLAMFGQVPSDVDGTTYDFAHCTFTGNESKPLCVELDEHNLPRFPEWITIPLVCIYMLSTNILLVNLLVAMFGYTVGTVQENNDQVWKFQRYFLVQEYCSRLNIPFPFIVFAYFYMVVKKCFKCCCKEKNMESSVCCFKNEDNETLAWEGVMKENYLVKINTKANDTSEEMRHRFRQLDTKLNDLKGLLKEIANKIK
Sequence of hTRPV1 (Q8NER1 whole entry): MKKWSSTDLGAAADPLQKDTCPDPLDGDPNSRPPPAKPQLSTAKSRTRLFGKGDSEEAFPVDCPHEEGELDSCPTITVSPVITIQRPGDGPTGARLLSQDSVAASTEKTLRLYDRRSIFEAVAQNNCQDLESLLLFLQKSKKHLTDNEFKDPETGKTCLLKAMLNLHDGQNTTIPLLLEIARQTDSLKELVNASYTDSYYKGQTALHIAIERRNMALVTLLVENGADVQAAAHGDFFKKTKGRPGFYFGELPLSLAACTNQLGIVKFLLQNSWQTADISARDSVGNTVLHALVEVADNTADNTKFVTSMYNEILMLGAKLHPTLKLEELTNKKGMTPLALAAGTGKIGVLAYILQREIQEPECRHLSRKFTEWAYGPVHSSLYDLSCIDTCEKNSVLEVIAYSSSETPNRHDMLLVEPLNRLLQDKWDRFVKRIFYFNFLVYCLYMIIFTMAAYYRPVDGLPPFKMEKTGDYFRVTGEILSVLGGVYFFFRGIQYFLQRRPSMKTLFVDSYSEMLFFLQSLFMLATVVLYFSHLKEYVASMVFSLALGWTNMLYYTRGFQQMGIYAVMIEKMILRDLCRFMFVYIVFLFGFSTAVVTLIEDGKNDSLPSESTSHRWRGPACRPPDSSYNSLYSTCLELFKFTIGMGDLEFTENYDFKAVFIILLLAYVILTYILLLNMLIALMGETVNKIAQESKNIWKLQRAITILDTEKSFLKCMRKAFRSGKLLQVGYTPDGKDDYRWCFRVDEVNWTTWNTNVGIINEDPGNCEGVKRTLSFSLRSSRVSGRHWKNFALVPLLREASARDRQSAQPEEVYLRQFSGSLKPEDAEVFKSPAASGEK

In the case of `CC1(C)[C@@H]2CC[C@@]1(C)[C@](C)(O)C2` [2-methylosoborneol], the “activation of hTRPA1” value ([1]; Takaishi 2014) is listed as “did not activate”, the “inhibition of hTRPA1 activation by allyl isothiocyanate (mustard oil)” value (“inhibition of hTRPA1 activation … (mustard oil)” below) [2] is listed as “completely inhibited” and the “inhibition of hTRPA1 activation by menthol” value (shortened to “inhibition … by menthol”) [2] is listed as “completely inhibited”.

In the case of `O=C1CC2CC[C@H]1C2` [norcamphor], the “activation of hTRPA1” value ([1]; Takaishi 2014) is listed as “did not activate”.

In the case of `CC12CCC(CC1)C(C)(C)O2` [1,8-cineole], the “activation of hTRPA1” value ([1]; Takaishi 2012) is listed as “without activating”, the “activation of hTRPA1” value ([1]; Takaishi 2014) is listed as “did not activate” and the “activation of human TRPM8 (hTRPM8)” value [3] is listed as “activates”. The “activation of hTRPV1” value [4] was “did not activate” and the “activation of hTRPV2” value [5] was “did not activate”.

In the case of `CC12CCC(C1)C(C)(C)C2O` (stereo not drawn) [fenchyl alcohol], the “activation of hTRPA1” value ([1]; Takaishi 2014) is given as “did not activate”, the “inhibition of hTRPA1 activation … (mustard oil)” value [2] is given as “completely inhibited” and the “inhibition … by menthol” value [2] is given as “completely inhibited”.

For `CC1(C)C2CCC1(C)C(O)C2` (stereo not drawn) [borneol], the “activation of hTRPA1” value ([1]; Takaishi 2014) is given as “did not activate”, the “inhibition of hTRPA1 activation … (mustard oil)” value [2] is given as “completely inhibited” and the “inhibition … by menthol” value [2] is given as “completely inhibited”.

For `CCCCCCCC/C=C\CCCCCCCC(=O)O` [oleic acid], the TRPV1 activity [6] is given as “inhibited” and the “pain and itch responses” value [7] is given as “inhibited”.

For `CC12CCC(CC1=O)C2(C)C` (stereo not drawn) [camphor], the “activation of hTRPA1” value ([1]; Takaishi 2014) is listed as “did not activate”.
